Assay results published in US20260191817A1, “FIBROBLAST MODULATORS IN STROMA-RICH TUMORS” (UNIVERSITEIT GENT, priority 2022, published 2026).

Legend:
[1] = tested on: HCA2 hTERT dermal fibroblasts; test: AFM spheroid stiffness, HCA2 hTERT dermal fibroblasts; type: cell-based; details: HCA2 hTERT normal dermal fibroblasts; 1 μM, 48 h
Experimental: (§1) Selectivity for CAFs with respect to normal fibroblasts and other cell types was assessed by performing an identical experiment with normal fibroblasts and other cell types, where compounds were considered selective for CAFs if they only modulate CAF stiffness.
(§2) U-shaped, 384-well ULA plates (cat. no. MS-9384UZ, S-bio) were seeded with a suspension of cell-specific culture media with cells. Cells were allowed to form spheroids for an appropriate time under treatment conditions before use in experiments. Cell culture dishes (cat. no. 734-2814, VWR) were filled with collagen gel and placed at 37° C. for an appropriate time to allow solidification. For each condition, spheroids were pooled in one cell culture dish. The medium was removed (stored at 37° C.) to promote attachment of the bottom of each spheroid to the collagen gel. The cell culture dishes were incubated at 37° C. After the incubation period, the stored medium was carefully (prevent detachment of spheroids) added to the dishes.
(§3) Mechanical measurements were performed using an atomic force microscope. To indent the spheroids an in-house made colloidal probe was used. Force curves were collected using an appropriate setpoint and probe speed (depending on the stiffness of the spheroids). On each spheroid multiple force curves were collected. Collected curves were then processed using the JPK DP software. Young's modulus was extracted from the force curves. All experiments were performed in biological triplicate.
(§4) To generate 3D cultures mimicking the complexity and pathophysiology of in vivo tumors, spheroids were used (cfr. point 4). Spheroids are considered to better simulate cellular heterogeneity, nutrient and oxygen gradients, cell-cell interactions, cell-matrix interactions, gene expression profiles, stromal interactions, therapeutic responses, multicellular resistance, drug penetration and anti-apoptotic signaling.

[2] = tested on: MCF-7/6 breast cancer cells; test: AFM spheroid stiffness, MCF-7/6 breast cancer cells; type: cell-based, human; details: 48 h
Experimental: as §1, §2, §3, §4

[3] = tested on: 4T1-Luc aggregates; test: Chick heart invasion (CHI) assay with 4T1-Luc aggregates; type: cell-based, mouse; details: 1 μM, in duplo
Experimental: Chick heart invasion assays were performed as described earlier (Bracke et al. 2014). Precultured heart fragments of 9-day-old chicken embryos were confronted with MCF-7/6 aggregates on top of a semi-solid agar at 37° C. overnight, after which the confronting pairs were cultured in suspension for 8 days at 37° C., 10% CO2 in presence or absence of a test compound (in duplo). This procedure can also be performed with aggregates of 4T1-Luc cells, for which the suspension culture of the confronting pairs is performed for 3.5 days. All compounds were evaluated at 1 μM and 100 nM; depending on the outcome higher or lower concentrations were subsequently evaluated. […] Sections of the confrontation cultures were stained with hematoxylin-eosin are blinded and scored by a trained person (Bracke et al., 2014).
In the chick heart invasion assay cancer cells are confronted with a fragment of normal tissue, so as not to neglect the contribution of the host tissue in the micro-ecosystem that governs tumor behavior. […] After eight days for MCF-7/6, or another period depending on the cell type, the interaction between the cancer cells and the PHF is evaluated histologically and classified along a 5-grades subjective scale (Bracke et al. 2014). […] Compounds that inhibit invasion of confronting cancer cells i.e. from III/IV to 0/I/II, are determined as anti-invasive. […]

Compound	spheroid stiffness [1]	spheroid stiffness ([2]; 1 μM)	spheroid stiffness ([2]; 0.03-3 μM)	Histological invasion grade [3]
COc1cc(C(=O)/C=C/c2ccc(F)cc2)cc(OC)c1OC [Compound A1, 3-(4-Fluorophenyl)-1-(3,4,5-trimethoxyphenyl)prop2-en-1-one]	no effect	no effect	not result in a change	I/II-III
COc1cc2oc(-c3ccc(F)cc3)cc(=O)c2c(OC)c1OC [Compound B1, 2-(4-Fluorophenyl)-5,6,7-trimethoxy-4H-chromen-4-one]	no effect	no effect		II/II
